Data set [1] addresses T1, AChE (EC 3.1.1.7, from electric eel) (Electrophorus electricus, UniProt O42275).
T1 construct: purchased Sigma-Aldrich
As to the kind of experiment: biochemical. Conditions: for IC50: means ± SD, at least three independents. The procedure: (§1) AChE and BChE inhibitory activities of compounds were determined by using a modified Ellman’s method. AChE (EC 3.1.1.7, from electric eel), BChE (EC 3.1.1.8, from horse serum), 5,5′-dithiobis(2nitrobenzoic acid) (DTNB), acetylthiocholine iodide (ATCI) and butyrylthiocholine iodide (BTCI) were purchased from Sigma-Aldrich. The reaction mixture contained 140 μL of 100 mM sodium phosphate buffer (pH 8.0), the enzyme solution (either 0.05 U/mL of AChE, 20 μL; or 0.05 U/mL of BChE, 20 μL), and test compound (20 μL). Assayed solutions of test compounds were pre-incubated with corresponding ChE at 25 °C for 15 min. The reaction was initiated by the addition of 10 μL of 10 mM DTNB and 10 μL of 7.5 mM substrate (ATCI or BTCI). The activity was determined by measuring the increase in absorbance at 412 nm at 37 °C in 10 min intervals using a microplate reader. The percentage of inhibition was calculated from the measured data as follows: (Ac − Ai)/Ac × 100%, where Ai and Ac represent the change in the absorbance in the presence of inhibitor and without inhibitor, respectively.

Data set [2] has as its target T2, BChE (EC 3.1.1.8, from horse serum) (Equus caballus, UniProt P81908).
T2 construct: BChE (EC 3.1.1.8, from horse serum); purchased Sigma-Aldrich; host or cells: horse serum
The data set is described as follows: biochemical. The note with it: means ± SD, at least three independents. The protocol: as §1

In a further data set the target is T3, AChE (Electrophorus electricus, UniProt O42275).
T3 construct: purchased Sigma-Aldrich
The data set is described as follows: Enzyme kinetic analysis against AChE (reversibility, Lineweaver-Burk, Ki). Format: biochemical. Conditions: for type of AChE inhibition: Lineweaver-Burk plots; for Ki: Lineweaver-Burk secondary plots, substrate ATCI, read-out: Ki (inhibition constant) against AChE; for reversibility of AChE inhibition: plots of initial velocity versus enzyme concentration. The procedure:
The kinetic characteristics of two active compounds, 11a and 11g, against AChE was also studied to elucidate the type of inhibition and the inhibition constant. The analysis was carried out by measuring the enzyme’s activity at different concentrations of substrate (0 μM–10.0 μM). The acquired inhibition data were further depicted with the Lineweaver–Burk method followed by inhibition constant (Ki) calculation using Lineweaver–Burk secondary plots. […] This pattern of inhibition is usually the result of a combination of partially competitive and non-competitive inhibitors.
In order to investigate the reversibility of compounds 11a and 11g to AChE, different concentrations of compounds (0−10 μM) and five different concentrations of AChE (0.025−0.10 U/mL) were measured at 412 nm after a 2 min incubation at 37 °C. Values were measured in triplicate for the velocity and enzyme concentration profiles. Velocity (V) was calculated from the measured data as follows: V = (Ac−Ai)/2, where Ai and Ac represent the change in absorbance in the presence and absence of […], respectively. All data were analyzed by OriginPro 2021.
For each experiment, the reaction was started by adding substrate and the progression curve was recorded at 412 nm after two minutes of incubation at 37°C. […] The slopes of these inverse plots were then plotted against the compound concentrations in the correlation analysis, and Ki was determined as the intercept on the negative x-axis. All rate measurements were performed in triplicate and data analysis was performed using OriginPro 2021.

Data set [3] is described as follows: Water solubility, shake-flask method. The note with it: thermodynamic from solid, double distilled water, 37 °C. Format: physicochemical. The protocol: Water solubility is regarded as another vital descriptor for BBB penetration, where high solubility is considered as a prerequisite for a rapid absorption and higher bioavailability of a drug candidate. […] With this experiment, we have obtained their data as 0.62, 3.03, 12.9, and […] for the selected compounds 11a, 11g, 12a, and 12c, respectively.
Solubility was determined by using the shake-flask method.The desired amount of the compound was placed in a test tube, to which an appropriate amount of double distilled water was introduced. The suspension was agitated on a plate shaker at 37 °C for 24 h. After centrifuging, HPLC analyses of supernatant was performed. The solubility of the compound was obtained from its HPLC result.

Data set [4] is described as follows: Lipophilicity (LogP) determination, shake-flask octanol/water. Format: physicochemical. The note with it: HPLC, read-out: LogP (experimental). From the text:
For anti-Alzheimer drug candidates, the ability to cross the blood–brain barrier (BBB) and to enter the central nervous system (CNS) is crucial to achieve their pharmacological target binding and activity, and CNS drugs require more strict rules for a successful penetration. […] Besides, for molecules to penetrate the BBB, a topological polar surface area (TPSA) value less than 90 Å ^2 is usually needed and molecules with a TPSA of greater than 120 Å ^2 tend to be poor in permeating cell membranes. Therefore, the molar mass (MW), LogP, and TPSA of all target compounds were simulated by ChemDraw 19.0 (Table 1). […] Because LogP was thought as an important physicochemical parameter to evaluate the ability to cross BBB, the LogP of some compounds was further assessed in experiments.
The lipophilicities of test compounds were determined using the traditional shake-flask method. A solid test compound (2 mg) was placed into a 10 mL pear-shaped flask, and measured volumes of octanol and water were added for logP determination. The resulting biphasic mixture was stirred for 24 h and then left without stirring for 12 h to allow phase separation. The test compound in each phase was sampled and quantitated using HPLC. The areas under the peaks were divided and the log taken.

Data set [5] can be described thus: ABTS radical-scavenging assay. The procedure: ABTS radical-scavenging activity was measured by using the modified method. The test compound was dissolved in ethanol as 1.0 mg/mL, 0.5 mg/mL, 0.25 mg/mL, 0.125 mg/mL, 0.0625 mg/mL, and 0.03125 mg/mL. Similarly, the ethanol solution of Trolox with the same concentration gradient was prepared as a positive control. ABTS solution at a concentration of 7 mM and potassium persulfate solution at a concentration of 2.45 mM with distilled water were also prepared. The ABTS solution and the potassium persulfate solution were mixed in equal amounts, and then placed in the dark and protected from light for 12 h. The ABTS standard solution was diluted with ethanol until the absorbance value at 734 nm was in the range of 0.7 ± 0.05. Then, 3900 µL of ABTS cation solution was mixed with 100 µL of test compound at different concentrations. The samples were kept in the dark for 10 min at room temperature and absorption was measured at 734 nm on a spectrophotometer. The percentage of ABTS radical-scavenging activity was calculated as follows: (Ac−Ai)/Ac × 100%, where Ai and Ac represented the change in absorbance in the presence and absence of the test sample, respectively.

Data set [6] addresses T1, AChE (EC 3.1.1.7, from electric eel). The note with it: cited from earlier work.
The target in data set [7] is T2, BChE (EC 3.1.1.8, from horse serum). Conditions: cited from earlier work.

The structures appear in SMILES notation. Converted amounts (≈) assume the structure as drawn. “Also recorded” adds a separate entry of the source. Where two headings read alike, the source gives them in different places. Marks after values point to notes of the source that are not given here.

T2 sequence (P81908 whole entry): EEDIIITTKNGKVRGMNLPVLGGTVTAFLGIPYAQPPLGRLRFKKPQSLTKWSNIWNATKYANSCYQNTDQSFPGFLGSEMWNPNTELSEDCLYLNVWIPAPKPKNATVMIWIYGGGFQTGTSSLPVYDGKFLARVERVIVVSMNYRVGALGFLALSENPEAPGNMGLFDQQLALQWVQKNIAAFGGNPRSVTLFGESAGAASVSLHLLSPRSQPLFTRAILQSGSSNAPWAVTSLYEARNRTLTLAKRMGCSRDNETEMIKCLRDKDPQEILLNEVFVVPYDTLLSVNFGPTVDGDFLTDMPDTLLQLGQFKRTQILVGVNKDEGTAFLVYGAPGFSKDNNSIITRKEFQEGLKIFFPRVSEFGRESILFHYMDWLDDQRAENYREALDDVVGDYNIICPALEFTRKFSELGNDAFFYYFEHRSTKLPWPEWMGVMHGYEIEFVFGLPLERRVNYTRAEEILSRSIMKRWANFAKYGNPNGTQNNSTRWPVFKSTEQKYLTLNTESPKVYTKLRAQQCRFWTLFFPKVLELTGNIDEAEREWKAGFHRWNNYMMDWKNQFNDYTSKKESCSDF
T1 sequence (O42275 24-633): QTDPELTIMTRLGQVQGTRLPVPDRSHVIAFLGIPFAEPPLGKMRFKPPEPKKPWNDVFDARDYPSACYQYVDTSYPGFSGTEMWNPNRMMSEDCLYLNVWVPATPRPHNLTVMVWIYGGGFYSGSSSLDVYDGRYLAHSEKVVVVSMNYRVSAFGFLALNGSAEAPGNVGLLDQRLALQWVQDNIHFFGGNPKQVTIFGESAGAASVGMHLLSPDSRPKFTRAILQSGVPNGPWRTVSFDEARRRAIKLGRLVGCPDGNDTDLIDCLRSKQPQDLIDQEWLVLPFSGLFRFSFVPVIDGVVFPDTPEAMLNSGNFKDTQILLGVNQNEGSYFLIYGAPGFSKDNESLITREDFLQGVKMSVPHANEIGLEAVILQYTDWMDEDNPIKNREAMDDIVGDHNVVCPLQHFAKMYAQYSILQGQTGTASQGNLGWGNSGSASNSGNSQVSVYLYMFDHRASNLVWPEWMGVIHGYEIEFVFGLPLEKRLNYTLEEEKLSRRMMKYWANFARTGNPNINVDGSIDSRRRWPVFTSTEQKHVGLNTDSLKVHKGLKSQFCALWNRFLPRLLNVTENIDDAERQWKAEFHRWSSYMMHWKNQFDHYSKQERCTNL
T3 sequence (O42275 24-633): as above

Turning to `COc1cc2c(Nc3ccccc3)c([N+](=O)[O-])cnc2cc1OCCCN1CCOCC1` [11a, 6-Methoxy-7-(3-Morpholinopropoxy)-3-Nitro-4-Phenylamino-Quinoline], in data set [1], the “SI for AChE = IC50 BChE/IC50 AChE” value stood at 16.37 and the IC50 stood at 4.94 ± 0.15 µM. This compound also returned an IC50 in data set [2] of 80.9 ± 2.31 µM. Also, at AChE, the “type of AChE inhibition” value is listed as “mixed-type AChE inhibitors; also recorded: mixed type of inhibition”, the Ki stood at 2.03 µM and the “reversibility of AChE inhibition” value is recorded as “reversible inhibitors”. The compound further displayed a solubility at 24 h in data set [3] of 620 µg/mL (≈ 1.41 mM). In data set [4], the lipophilicity (logP) at 24 h was found to be 3.82.
Regarding `COc1cc2c(Nc3ccccc3)c([N+](=O)[O-])cnc2cc1OCCN1CCOCC1` [11g, 6-Methoxy-7-(2-Morpholinoethoxy)-3-Nitro-4-Phenylamino-Quinoline], the IC50 in data set [1] amounted to 1.94 ± 0.13 µM. Moreover, in data set [2], the IC50 was found to be 28.4 ± 1.85 µM. On AChE, the “type of AChE inhibition” value is reported as “mixed-type AChE inhibitors; also recorded: mixed type of inhibition”, the Ki came to 0.64 µM and the “reversibility of AChE inhibition” value was “reversible inhibitors”. In addition, in data set [5], the “ABTS radical-scavenging IC50” value worked out at 17.50 ± 2.71 µg/mL and the half-inhibitory concentration (IC50) is 41.2 ± 6.38 µM. The amount in solution in data set [3] (solubility at 24 h) came to 3030 µg/mL (≈ 7.14 mM). Also, in data set [4], the logP at 24 h is 3.55.
Take `COc1cc2c(Nc3ccccc3)c(N)cnc2cc1OCCCN1CCOCC1` [12a, 6-Methoxy-7-(3-Morpholinopropoxy)-3-Amino-4-Phenylamino-Quinoline]: in data set [1], the “SI for AChE = IC50 BChE/IC50 AChE” value is recorded as 3.34 and the concentration for half-maximal inhibition (IC50) was found to be 9.13 ± 0.42 µM. Moreover, it took 30.5 ± 2.48 µM to reach half-maximal inhibition in data set [2] (IC50). In data set [3], this compound had a solubility at 24 h of 12900 µg/mL (≈ 31.6 mM). Further, the lipophilicity (logP) at 24 h in data set [4] came out at 2.07.
On the same counts, the results for `COc1cc2c(Nc3cccc(Cl)c3)c(N)cnc2cc1OCCCN1CCOCC1` [12c, 6-Methoxy-7-(3-Morpholinopropoxy)-3-Amino-4-(3-Chlorophenylamino)-Quinoline] are 1.26, 22.1 ± 0.33 µM, 27.8 ± 2.16 µM, 10500 µg/mL (≈ 23.7 mM) and 2.35.
For the compound `COc1cc2c(Nc3ccccc3Cl)c([N+](=O)[O-])cnc2cc1OCCCN(C)Cc1ccccc1` [B], the “SI for AChE = IC50 BChE/IC50 AChE” value in data set [6] is 3.08 ^e.
Consider `COc1ccc(Nc2c([N+](=O)[O-])cnc3cc(OCCCN4CCC(C)CC4)c(OC)cc23)cc1` [C], for which, in data set [6], the IC50 was 1.2 ± 0.18 µM and the “SI for AChE = IC50 BChE/IC50 AChE” value is listed as 15.43 ^f. The concentration for half-maximal inhibition (IC50) in data set [7] is 18.5 ± 1.2 µM.

The term IC50 denotes the point on the concentration scale where inhibition reaches its midpoint. The term Ki denotes the dissociation constant of the complex between target and ligand, obtained from inhibition or displacement. In general, solubility refers to the concentration that dissolves in the medium under given conditions. Read a high solubility as a readily soluble substance. Broadly, the logP is a log measure of how a compound divides between an organic and an aqueous phase.

Source of the values: article PMC9570490, “Novel Morpholine-Bearing Quinoline Derivatives as Potential Cholinesterase Inhibitors: The Influence of Amine, Carbon Linkers and Phenylamino Groups” (International Journal of Molecular Sciences, 2022).
